Results: a melting point compilation (Tetko et al.; mined from patent text by program, amines drawn as free bases though some values may be those of a salt)

| melting point [°C] | SMILES |
| --- | --- |
| 38 to 40 | SCCC1c2ccccc2-c2ccccc21 |
| 83 | CCCc1cc2c(cc1C=NO)OCO2 |
| 142 to 144 | CCCn1c(=O)c(-c2ccccc2)c2n(c1=O)CC=CS2 |
| 184 to 186 | Cc1nc2cccc(OCC(C)(C)NC(=O)C(C)C)c2c(N)c1C(=O)O |
| 164 to 165 | CC(C)Cc1nc2ccc(Br)cc2c(-c2ccccc2)c1CN1C(=O)c2ccccc2C1=O |
| 178 | COc1nc(C2CC2)nc(O)c1C |
| 84 to 85 | CCCCC(=O)Nc1c(C(=O)OC)cc(Cl)cc1[N+](=O)[O-] |
| 246 to 249 | CCCCCOc1ccc(-c2ccc(-c3nc(N)nc(N)n3)cc2)cc1 |
| 137 to 139 | Cc1cccc(-c2c(C)n(C)c(=O)n(C)c2=O)c1 |
| 210 to 212 | COC1=C(C#N)C(c2ccccc2)=C2C(=O)N(C)C(c3ccccc3)=C12 |
| 178 to 182 | CC1(C)C=Cc2cc(-c3nnnn3CCN3C(=O)c4ccccc4C3=O)ccc2O1 |
| 216 to 217 | CCNC(=O)CC1CN=C(c2cc3cc(Oc4ccc(S(C)(=O)=O)nc4)ccc3[nH]2)S1 (stereo not given) |
| 100 to 101 | CS(=O)(=O)c1ccc(C2=C(c3ccc(Cl)c(Cl)c3)CCC2)cc1 |
| 272 | O=C1NCc2cc(C(O)c3cccnc3)ccc2N1 (stereo not given) |
| 135 | ClCCCOc1ccc(OCCCCl)c(Cl)c1 |
| 291 to 292 | O=C(Nc1nc(-c2ccccc2)cs1)c1ccccc1C(c1ccc(O)cc1)c1ccc(O)cc1 |
| 130 to 133 | Cc1ccc(OC(C(=O)OC2CC(O)C=C3C=CC(C)C(CCC4CC(O)CC(=O)O4)C32)c2ccccc2)cc1 (mixture of isomers) |
| 146 to 148 | Nc1cc(Cl)nc(C(=O)O)c1C=O |
| 123 to 124 | COC(=O)c1cc(C#Cc2ccc(C(=O)OC(C)(C)C)cc2)cnc1Cl |
| 258 to 260 | Nc1nc2c(ncn2OCC(O)CP(=O)(O)O)c(=O)[nH]1 (stereo not given) |
| 86 | CCC(=O)N1C(=O)OC(C)(C)[C@@H]1C |
| 70 to 80 | O=C(NC1(C(=O)O)CCCC1)OCc1ccccc1 |
| 87 to 90 | CN1C(=O)C(CN2CCCCC2)CC1C1CC1c1ccccc1Cl (stereo not given) |
| 88 to 89 | O=[N+]([O-])c1cc2c(cc1O)CCCC2 |

| melting point [°C] | SMILES |
| --- | --- |
| 44 to 46 | CC(C(=O)NCC(COC(=O)C(C)(C)C)Cc1ccc(C(C)(C)C)cc1)c1ccc(NS(C)(=O)=O)c(F)c1 (stereo not given) |
| 70 to 74 | COc1cc(CC(=O)N[C@@H](COC(=O)C(C)(C)C)Cc2ccccc2)ccc1OCCN |
| 78 to 80 | Cc1sc2c(c1Br)C(=O)N(CCCCCl)CCC2 |
| 173 to 175 | Cc1ncccc1Oc1ccc(NC(=O)Nc2ccc3[nH]c4c(c3c2)CCN(C(=O)OC(C)(C)C)CC4)cn1 |
| 114 to 115 | NC(=O)CC1(c2ccccc2)Oc2ccccc2O1 |
| 217 to 220 | Nc1cc(C#Cc2ccc3c(C(=O)Nc4cccc(C(F)(F)F)c4)cccc3c2)ncn1 |
| 83 to 86 | CNC(=O)[C@@H](C[C@H](O)[C@H](CC1CCCCC1)NC(=O)[C@H](Cc1cscn1)NC(=O)[C@@H](CC(=O)N1CCOCC1)Cc1ccccc1)C(C)C |
| 115 to 117 | COc1ccccc1O[C@@H]1CN(Cc2ccccc2)C[C@H]1O (relative stereo) |
| 110 to 113 | CC1CC(=O)c2c(OS(=O)(=O)c3cccs3)ccc(Br)c2C1 (stereo not given) |
| 53 to 57 | COc1cccc(CO)c1F |
| 208 | COc1cc(-c2nc3ccc(O)cc3n2Cc2ccccc2Br)cc(OC)c1OC |
| 62 to 65 | COc1ccc(CN(CCN(C)CCCNC(=NCCCOc2cccc(CN3CCCCC3)c2)NC#N)c2ccccn2)cc1 |
| 218 to 220 | Cc1nc(N2CCN(CC3CC3)C2=O)sc1C(=O)NCc1ncccn1 |
| 77 to 79 | CNc1cnn(-c2cccnc2)c1Br |
| 148 | O=S(=O)(c1ccc(O)cc1)c1ccccn1 |
| 223 to 225 | Cc1c(-c2ccc(O)cc2)sc(C=O)c1-c1ccc(O)cc1 |
| 82 to 83 | CCCCc1csc2ccc([N+](=O)[O-])cc12 |
| 188 to 189 | Cc1c(NC(=O)c2ccccc2[N+](=O)[O-])cccc1C(F)(F)F |
| 296 to 297 | COc1ccc(-n2c(=O)[nH]c3c(-c4ccc(C(F)(F)F)cc4F)ncnc32)cc1 |
| 139 to 142 | CCN1C(=O)C(C(=O)Nc2cccc(C(=O)Nc3ccc(Br)cc3)c2)c2cc(C(=O)c3ccccc3)ccc21 (stereo not given) |
| 236 to 237 | CCn1c(=O)c2c(nc(C=Cc3cc(OC)ccc3S(N)(=O)=O)n2C)n(CC)c1=O |
| 95 | OCC1OC(OCc2ccccc2)C(O)C1O (stereo not given) |
| 119 to 121 | CCCCCc1cccc2c1NC(=O)C2=O |
| 71 to 72 | CCOC(=O)C(C)=NN(C)c1ccc(C(F)(F)F)cc1 |

| melting point [°C] | SMILES |
| --- | --- |
| 105 to 109 | CCCCCCCCNC(=O)c1c(N)cc(Cl)cc1Cl |
| 174 to 180 | CC(C)(C)c1csc(-c2cc3cc(Cc4nc(-c5ccccc5)c(CC(=O)O)s4)ccc3o2)n1 |
| 110 to 111 | CCOc1ccc2c(c1)C(Cl)Cc1ccc(F)cc1S2 (stereo not given) |
| 141 | CC(C)c1ccc(N(Cc2ccc(N(C)C)cc2)C(=O)C2CCCc3cc(OCCO)ccc32)cc1 (stereo not given) |
| 257 | O=P(O)(O)C(O)(Cc1ccc2ccccc2c1)P(=O)(O)O |
| 89 to 91 | COC(=O)C[C@H](O)CC(=O)C=Cc1c(-c2ccc(F)cc2)c(-c2ccccc2)c(C(=O)Nc2cccc(S(N)(=O)=O)c2)n1C(C)C |
| 124 to 125 | COc1ccc(CNc2nc(SC)ncc2C=O)cc1Cl |
| 134 to 135 | COC(=O)c1cccc2oc(-c3ccccc3O)nc12 |
| 175 to 176 | NC(=O)C(NC(=O)OCc1ccccc1)C(O)CO (stereo not given) |
| 155 to 156 | CN(C)S(=O)(=O)N(C)c1ccc(C(=O)Nc2ccc(Cl)cc2)cc1 |
| 153 to 154 | NC(=O)c1c(OCc2ccccc2)ccc2ccccc12 |
| 91 to 93 | COc1cc(N(C)C)cc(CN(C)CCc2ccc(N=C(N)c3cccs3)cc2)c1O |
| 251 to 252 | O=C(O)COc1cc2c(c(Cl)c1Cl)C(=O)C(c1ccccc1)(c1ccccc1)C2 |
| 272 to 274 | O=C(/C=C/c1ccc([N+](=O)[O-])cc1)c1cc2ccccc2oc1=O |
| 143 to 146 | CCc1c(C(=O)OC)[nH]c(=O)c(CC(C)C)[n+]1[O-] |
| 313 to 316 | O=C1Cc2cc(-c3cnc4[nH]c(=O)n(CC5CCCCC5)c4n3)ccc2N1 |
| 274 to 276 | Cc1cc2c(cc1-c1cc(C=C3SC(=O)NC3=O)ccc1N(C)C)N(C(C)C)C(=O)CC2(C)C |
| 140 to 141 | Cc1ccc(N(C(=O)CCl)c2c(Cl)cc(C)cc2Cl)cc1 |
| 95.5 to 96 | O=C(CCCCOc1ccc(OCc2ccccc2)cc1)C(F)(F)F |
| 123 to 125 | CC(=O)Nc1nc2c(Oc3cc(-c4ccc(C(F)(F)F)nc4N(C)CC4CCCCN4CC(C)C)ncn3)cccc2s1 (stereo not given) |
| 198 to 200 | O=C(O)C1=Cc2ccc(Br)cc2OC1C(F)(F)F (stereo not given) |
| 142 | O=C(Nc1ccc2[nH]c(C(F)(F)F)nc2c1)C(=O)N1CCC(Cc2ccccc2)CC1 |
| 79 | C=CCn1c(C)nc2c3c(ccc21)[C@@H](OCCOC)[C@H](O)[C@@H](c1ccccc1)O3 |
| 226 to 228 | Nc1c(Br)cc(O)c2c1C(=O)c1ccccc1C2=O |

| melting point [°C] | SMILES |
| --- | --- |
| 57 | CNc1ccc(OC)c([N+](=O)[O-])c1OC |
| 169 to 170 | OC(CNCCNc1ncnc2nc[nH]c12)COc1ccccc1 (stereo not given) |
| 168 to 170 | CN(C)C(=O)Nc1ccc(Br)cc1 |
| 138 | CCCCc1ccc(NC(=O)c2ccc(N)cc2)cc1 |
| 185 to 188 | CCc1cn(C2OC(CN=[N+]=[N-])C(O)C2F)c(=O)[nH]c1=O (stereo not given) |
| 171 to 173 | COc1ccc(C2=NNC(=O)CC2c2ccc(OC)c(F)c2)cc1 (stereo not given) |
| 163 to 164 | O=C(CCc1cnoc1-c1ccccc1)Nc1cnccn1 |
| 97 to 99 | CCOP(=O)(CC(=O)N1CCc2ccccc21)OCC |
| 115 to 117 | CCCOc1nccc2c1C(c1ccccc1C(F)(F)F)C(C(=O)OCC)=C(C)N2 (stereo not given) |
| 206 to 208 | CC(C)(C)OC(=O)N1CCn2c(Cl)c(-c3cccc(C#N)c3)c(C(N)=O)c2C1 |
| 191 to 192 | CCN(CC)CC1CCCCN1CC(=O)N1c2ccccc2C(=O)Nc2ccc(Cl)nc21 (stereo not given) |
| 167 to 170 | O=C(O)C1CC1(C(=O)O)c1cccc([N+](=O)[O-])c1 (stereo not given) |
| 142 | O=C(NC(Cc1ccccc1)C(=O)O)OCc1ccc(-c2ccccc2)cc1 (stereo not given) |
| 176 to 177 | Cc1c(Br)c2c(c(C)c1NC(=O)OC(C)(C)C)CCO2 |
| 176 to 177 | CC(CCC(F)(F)C(C)(C)O)C1CCC2C3CCC4=CC(=O)C=CC4(C)C3CCC12C (stereo not given) |
| 206 to 207 | CC(C)(C)OC(=O)Nc1ccc(-c2ccc(-c3ccccc3)cc2)cc1N |
| 235 to 237 | CCOCc1nc2c(N)nc3ccccc3c2n1CC1CC(c2ccccc2)=NO1 (stereo not given) |
| 147 to 149 | O=C(Nc1ccc(-n2nc(C(F)(F)F)cc2C(F)(F)F)cc1)c1cccc(F)c1F |
| 253 | Cc1cc(-c2cnn3c(C(F)(F)F)cc(-c4ccc(C(F)(F)F)c(C)c4)nc23)cc(C)n1 |
| 169 to 173 | CCNS(=O)(=O)c1cccc(OCc2nc3ccccc3n2C)c1 |
| 142 to 143 | C=CCOc1ccc(OC(C)=O)c2ccc(=O)[nH]c12 |
| 240 to 241 | NC(=O)c1cccnc1Nc1cccc([N+](=O)[O-])c1 |

| SMILES | melting point [°C] |
| --- | --- |
| COC(=O)CN1C(=O)CN=C(c2ccccc2Cl)c2cc(Cl)ccc21 | 193 to 194 |
| O=C(c1ccc2ccccc2c1)P1(=O)Oc2ccccc2-c2ccccc21 (stereo not given) | 151 to 153 |
| CC1(C)N=C(c2ccccc2F)c2cc(I)ccc2NC1=O | 212 |
| CC(=O)NC(COC(F)F)C(=O)NCc1ccccc1 (stereo not given) | 173 |
| CC1CC2(C)C(O)CCC2C2C(C)CC3=CC(=O)CCC3C12 (stereo not given) | 155 to 157 |
| CCCNCC(O)c1cccc(F)c1 (stereo not given) | 46 to 47.3 |
